Data reported in patent US8835469B2 (Cadila Healthcare Limited, priority 2009, dated 2014).

Biological target: T1, glucokinase (GK) enzyme (Homo sapiens, UniProt P35557)
T1 sequence (P35557 1-465): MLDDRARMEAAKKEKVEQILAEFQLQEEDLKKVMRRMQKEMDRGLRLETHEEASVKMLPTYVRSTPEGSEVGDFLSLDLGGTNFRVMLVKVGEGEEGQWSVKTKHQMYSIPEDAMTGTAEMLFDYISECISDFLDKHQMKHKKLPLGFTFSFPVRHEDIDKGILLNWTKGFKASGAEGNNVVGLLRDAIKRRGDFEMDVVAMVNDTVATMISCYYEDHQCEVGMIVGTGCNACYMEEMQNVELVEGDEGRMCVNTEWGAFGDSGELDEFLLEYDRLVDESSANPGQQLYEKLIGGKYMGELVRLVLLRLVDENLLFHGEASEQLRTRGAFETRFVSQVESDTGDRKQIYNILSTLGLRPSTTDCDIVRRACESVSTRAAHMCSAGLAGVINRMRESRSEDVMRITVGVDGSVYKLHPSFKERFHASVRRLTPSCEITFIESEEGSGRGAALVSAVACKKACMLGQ
Assay: In-vitro glucokinase (GK) activation assay (coupled with glucose-6-phosphate dehydrogenase, absorbance at 340)
Assay type: biochemical
Conditions: glucose 2.5 mM, read-out: % of GK activity wrt DMSO; for activity at 0.1 µM: 0.1 uM compound; for activity at 1 µM: 1 uM compound; for activity at 5 µM: 5 uM compound; for activity at 10 µM: 10 uM compound
Protocol: The compound of the invention was incubated with glucokinase (GK) enzyme (0.2 units) for 10 minutes in assay buffer at 26° C. After incubation, addition of glucose-6-phosphate dehydrogenase (2.5 units), ATP (1 mM) and glucose (2.5 mM). Absorbance is measured at 340 nm for 15 minutes with 10 second interval using UV transparent plate in kinetic mode on Spectramax-190 at 30° C.

Row | SMILES | activity at 0.1 µM [%] | activity at 1 µM [%] | activity at 5 µM [%] | activity at 10 µM [%]
1 | Cc1nnc(-c2ccc(Oc3cc(OC4CCN(C)C4=O)cc(C(=O)Nc4nc(CCN5CCOCC5=O)cs4)c3)cc2)o1 (stereo not drawn) [Example 5, 3-(4-(5-Methyl-1,3,4-oxadiazol-2-yl)phenoxy)-5-((1-methyl-2-oxopyrrolidin-3-yl)oxy)-N-(4-(2-(3-oxomorpholino)ethyl)thiazol-2-yl)benzamide] | 114 | 159 | 287 | 329
2 | Cc1nnc(-c2ccc(Oc3cc(OC4CCN(C)C4=O)cc(C(=O)NC4=NCCS4)c3)cc2)o1 (stereo not drawn) [Example 6, N-(4,5-Dihydrothiazol-2-yl)-3-(4-(5-methyl-1,3,4-oxadiazol-2-yl)phenoxy)-5-((1-methyl-2-oxopyrrolidin-3-yl)oxy)benzamide] | 100 | 115 | 190 | 275
3 | Cc1nc(-c2ccc(Oc3cc(OC4CCN(C)C4=O)cc(C(=O)Nc4nccs4)c3)cc2)no1 (stereo not drawn) [Example 7, 3-(4-(5-Methyl-1,2,4-oxadiazol-3-yl)phenoxy)-5-((1-methyl-2-oxopyrrolidin-3-yl)oxy)-N-(thiazol-2-yl)benzamide] | 164 | 314 | 356 | 347
4 | Cc1nnc(-c2ccc(Oc3cc(OC4CCN(C)C4=O)cc(C(=O)Nc4nnc(C5CC5)s4)c3)cc2)o1 (stereo not drawn) [Example 8, N-(5-Cyclopropyl-1,3,4-thiadiazol-2-yl)-3-(4-(5-methyl-1,3,4-oxadiazol-2-yl)phenoxy)-5-((1-methyl-2-oxopyrrolidin-3-yl)oxy)benzamide] | 134 | 195 | 218 | 235
5 | Cc1nnc(-c2ccc(Oc3cc(OC4CCN(C)C4=O)cc(C(=O)Nc4cnccn4)c3)cc2)o1 (stereo not drawn) [Example 9, 3-(4-(5-Methyl-1,3,4-oxadiazol-2-yl)phenoxy)-5-((1-methyl-2-oxopyrrolidin-3-yl)oxy)-N-(pyrazin-2-yl)benzamide] | 168 | 292 | 345 | 346
6 | Cc1nnc(-c2cccc(Oc3cc(OC4CCN(C)C4=O)cc(C(=O)Nc4nccs4)c3)c2)o1 (stereo not drawn) [Example 10, 3-(3-(5-Methyl-1,3,4-oxadiazol-2-yl)phenoxy)-5-((1-methyl-2-oxopyrrolidin-3-yl)oxy)-N-(thiazol-2-yl)benzamide] | 130 | 204 | 232 | 228
7 | Cc1nnc(-c2ccc(Oc3cc(OC4CCN(C)C4=O)cc(C(=O)n4c(N)nc5ccccc54)c3)cc2)o1 (stereo not drawn) [Example 11, 3-(3-(2-Amino-1H-benzo[d]imidazole-1-carbonyl)-5-(4-(5-methyl-1,3,4-oxadiazol-2-yl)phenoxy)phenoxy)-1-methylpyrrolidin-2-one] | 101 | 109 | 130 | 148
8 | Cc1nnc(-c2ccc(Oc3cc(OC4CCN(C)C4=O)cc(C(=O)Nc4cc(C)n(C(=O)OC(C)(C)C)n4)c3)cc2)o1 (stereo not drawn) [Example 12, tert-Butyl 5-methyl-3-(3-(4-(5-methyl-1,3,4-oxadiazol-2-yl)phenoxy)-5-((1-methyl-2-oxopyrrolidin-3-yl)oxy)benzamido)-1H-pyrazole-1-carboxylate] | 107 | 119 | 139 | 150
9 | Cc1nnc(-c2ccc(Oc3cc(OC4CCN(C)C4=O)cc(C(=O)Nc4nc5ccccc5s4)c3)cc2)o1 (stereo not drawn) [Example 14, N-(Benzo[d]thiazol-2-yl)-3-(4-(5-methyl-1,3,4-oxadiazol-2-yl)phenoxy)-5-((1-methyl-2-oxopyrrolidin-3-yl)oxy)benzamide] | 271 | 298 | 288 | 267
10 | Cc1nnc(-c2ccc(Oc3cc(OC4CCN(C)C4=O)cc(C(=O)Nc4ncc(C(=O)O)s4)c3)cc2)o1 (stereo not drawn) [Example 15, 2-(3-(4-(5-Methyl-1,3,4-oxadiazol-2-yl)phenoxy)-5-((1-methyl-2-oxopyrrolidin-3-yl)oxy)benzamido)thiazole-5-carboxylic acid] | 95.5 | 126 | 206 | 237
11 | Cc1csc(NC(=O)c2cc(Oc3ccc(-c4nnc(C)o4)cc3)cc(OC3CCN(C(C)C)C3=O)c2)n1 (stereo not drawn) [Example 16, 3((1-Isopropyl-2-oxopyrrolidin-3-yl)oxy)-5-(4-(5-methyl-1,3,4-oxadiazol-2-yl)phenoxy)-N-(4-methylthiazol-2-yl)benzamide] | 106 | 169 | 259 | 280
12 | Cc1nnc(-c2ccc(Oc3cc(OC4CCN(C(C)C)C4=O)cc(C(=O)Nc4ncc(C)s4)c3)cc2)o1 (stereo not drawn) [Example 17, 3((1-Isopropyl-2-oxopyrrolidin-3-yl)oxy)-5-(4-(5-methyl-1,3,4-oxadiazol-2-yl)phenoxy)-N-(5-methylthiazol-2-yl)benzamide] | 125 | 158 | 192 | 178
13 | Cc1nnc(-c2ccc(Oc3cc(OC4CCN(C(C)C)C4=O)cc(C(=O)Nc4nccs4)c3)cc2)o1 (stereo not drawn) [Example 18, 3((1-Isopropyl-2-oxopyrrolidin-3-yl)oxy)-5-(4-(5-methyl-1,3,4-oxadiazol-2-yl)phenoxy)-N-(thiazol-2-yl)benzamide] | 125 | 201 | 253 | 280
14 | Cc1csc(NC(=O)c2cc(Oc3ccc(-c4nnc(C)o4)cc3)cc(OC3CCN(C4CC4)C3=O)c2)n1 (stereo not drawn) [Example 19, 3((1-Cyclopropyl-2-oxopyrrolidin-3-yl)oxy)-5-(4-(5-methyl-1,3,4-oxadiazol-2-yl)phenoxy)-N-(4-methylthiazol-2-yl)benzamide] | 114 | 208 | 305 | 282
15 | Cc1nnc(-c2ccc(Oc3cc(OC4CCN(C5CC5)C4=O)cc(C(=O)Nc4ncc(C)s4)c3)cc2)o1 (stereo not drawn) [Example 20, 3((1-Cyclopropyl-2-oxopyrrolidin-3-yl)oxy)-5-(4-(5-methyl-1,3,4-oxadiazol-2-yl)phenoxy)-N-(5-methylthiazol-2-yl)benzamide] | 121 | 188 | 208 | 196
16 | Cc1nnc(-c2ccc(Oc3cc(OC4CCN(C5CC5)C4=O)cc(C(=O)Nc4nccs4)c3)cc2)o1 (stereo not drawn) [Example 21, 3((1-Cyclopropyl-2-oxopyrrolidin-3-yl)oxy)-5-(4-(5-methyl-1,3,4-oxadiazol-2-yl)phenoxy)-N-(thiazol-2-yl)benzamide] | 120 | 213 | 278 | 281
17 | Cc1csc(NC(=O)c2cc(Oc3ccc(-c4noc(C)n4)cc3)cc(OC3CCN(C)C3=O)c2)n1 (stereo not drawn) [Example 22, 3-(4-(5-Methyl-1,2,4-oxadiazol-3-yl)phenoxy)-5-((1-methyl-2-oxopyrrolidin-3-yl)oxy)-N-(4-methylthiazol-2-yl)benzamide] | 163 | 283 | 347 | 320
18 | Cc1nc(-c2ccc(Oc3cc(OC4CCN(C)C4=O)cc(C(=O)Nc4ncc(C)s4)c3)cc2)no1 (stereo not drawn) [Example 23, 3-(4-(5-Methyl-1,2,4-oxadiazol-3-yl)phenoxy)-5-((1-methyl-2-oxopyrrolidin-3-yl)oxy)-N-(5-methylthiazol-2-yl)benzamide] | 168 | 250 | 287 | 282
19 | Cc1cc(NC(=O)c2cc(Oc3ccc(-c4nnc(C)o4)cc3)cc(OC3CCN(C)C3=O)c2)n[nH]1 (stereo not drawn) [Example 24, 3-(4-(5-Methyl-1,3,4-oxadiazol-2-yl)phenoxy)-N-(5-methyl-1H-pyrazol-3-yl)-5-((1-methyl-2-oxopyrrolidin-3-yl)oxy)benzamide] | 146 | 147 | 173 | 189
20 | CCOC(=O)c1cnc(NC(=O)c2cc(Oc3ccc(-c4nnc(C)o4)cc3)cc(OC3CCN(C)C3=O)c2)s1 (stereo not drawn) [Example 25, Ethyl 2-(3-(4-(5-methyl-1,3,4-oxadiazol-2-yl)phenoxy)-5-((1-methyl-2-oxopyrrolidin-3-yl)oxy)benzamido)thiazole-5-carboxylate] | 125 | 149 | 203 | 208
21 | CCOC(=O)c1csc(NC(=O)c2cc(Oc3ccc(-c4nnc(C)o4)cc3)cc(OC3CCN(C)C3=O)c2)n1 (stereo not drawn) [Example 26, Ethyl 2-(3-(4-(5-methyl-1,3,4-oxadiazol-2-yl)phenoxy)-5-((1-methyl-2-oxopyrrolidin-3-yl)oxy)benzamido)thiazole-4-carboxylate] | 109 | 205 | 339 | 357
